# Source: patent US11723946B2, “Methods for regulating transcription of multiple genes and expression of multiple targets” (CHINA MEDICAL UNIVERSITY, priority 2014, dated 2023)
# Experiments:
# NF-κB [1] = test: Ex vivo bioluminescent imaging of organs, LPS-induced NF-κB/luc transgenic mice; type: in vivo; conditions: group 2 (LPS IP) vs group 1 (PBS blank); up-regulation
# Experimental: The mice of the three groups manipulated in example 3 were abdominally injected with 150 mg/Kg luciferin. After luciferin injection for 5 minutes, the mice were sacrificed and the tissues including brain, heart, lung, liver, spleen, stomach, kidney, ovary and intestine were rapidly removed. The collected tissues were placed in the IVIS Imaging System-200 Series (Xenogen, Hopkinton, Mass.) and imaged with the same setting used for in vivo bioluminescent imaging.
# In the table 2, the average of luciferin value in the mice of the group 2 was divided to average of luciferin value in the mice of the group 1 to obtain the fold change. In table 3, the average of luciferin value in the mice of the group 3 was divided to the average of luciferin value in the mice of the group 2 to obtain the fold change.
# NF-κB [2] = test: Whole animal bioluminescent imaging, LPS-induced NF-κB/luc transgenic mice; type: in vivo
# Description: Mice: The NF-κB/luc transgenic mice bearing the luciferase transgene driven by two copies of the NF-kappaB regulatory elements were mated with wild-type FVB mice to generate the hybrid NF-κB/luc transgenic offspring for the experiments. Whole animal bioluminescent imaging: 15 mice with age of 6˜8 weeks were randomly divided into three groups. The group 1 was the blank group; the group 2 was control group; and the group 3 was experimental group. The mice of the group 2 and the group 3 were administration with 100 ul of […] lipopolysaccharide (LSP) solution to induce the inflammation in the mice by intraperitoneal injection (IP injection). As the blank control, the mice of group 1 were administered with 100 μl of PBS by IP injection. After the LPS-injection for 5 minutes, the mice of the group 3 were further injected with 20 μl solution that contains 0.5 mg/Kg of the present polypeptide by IP injection. In contrast, the mice of the group 2 and the […] were injected with 20 μul of water. […] For in vivo imaging mice were anesthetized with isoflurane and injected intraperitoneally with 150 mg/kg luciferin. After 10 minutes, the mice were placed face up and imaged for 1 min with the camera set at the highest sensitivity by IVIS Imaging System-200 (Series Xenogen Hopkinton, Mass.). The photons emitted from the tissues were quantified by Living Images software (Xenogen, Hopkinton, Mass.) and were shown in FIG. 4A. In the FIG. 4A, the Y-axis shown the signal strength (photons/sec) that stands for total photons diffused from the mice.
substance,measurement,setting,value
"lipopolysaccharide [LPS, reference compound]","Fold change of the luciferin value, Brain",NF-κB [1],18.87 folds
same,"Fold change of the luciferin value, Heart",NF-κB [1],6.03 folds
same,"Fold change of the luciferin value, Intestine",NF-κB [1],55.63 folds
same,"Fold change of the luciferin value, Kidney",NF-κB [1],93.78 folds
same,"Fold change of the luciferin value, Liver",NF-κB [1],4.06 folds
same,"Fold change of the luciferin value, Lung",NF-κB [1],11.90 folds
same,"Fold change of the luciferin value, Ovary",NF-κB [1],5.35 folds
same,"Fold change of the luciferin value, Spleen",NF-κB [1],5.57 folds
same,"Fold change of the luciferin value, Stomach",NF-κB [1],4.95 folds
same,increase of NF-κB-driven luminescent intensity,NF-κB [2]; LPS group vs blank group,approximately 10.95 fold
same,average of luciferin value,"NF-κB [2]; group 2: LPS IP + water, 4 hours, blank group 1 2.92×10^7",31.97×10^7 photons/sec
